According to US7122529B2, “Compounds that release nitric oxide at controlled rates upon photolysis” (The Johns Hopkins University, priority 2001, dated 2006):
Marks after values point to notes of the source that are not given here.

What was measured:
Type in all cases: physicochemical
[1] = Rate of NO release upon photolysis compared with thermal decay of 1 and 20; details: for rate of photochemical release of NO versus thermal decomposition of 1 and 20: 10 seconds photolysis, Xenon arc lamp long-pass 324 nm filter, 10 mM phosphate and acetate buffers
Experimental: This example describes the general procedure for the determination of the rate of NO release from compounds 6 and 9 upon photolysis. Stock solutions of compounds 6 and 9 were prepared to be 100 μM in acetonitrile, and of these 15 μL aliquots were diluted into to […] of aqueous solutions at the appropriate pH (10 mM phosphate and acetate buffers). The probe was allowed to equilibrate in the sample solution before 10 seconds of photolysis using a Xenon arc lamp with a long-pass 324 nm filter. The rate of NO release was then monitored over the appropriate time span. For comparison, the thermal decay of both compounds 1 and 20 were recorded under the same conditions as those of the photochemical experiments.
As shown, this pH dependence follows the same pH dependence for the release from authentic samples of diazeniumdiolate 1.

[2] = Electrochemical quantification of NO / diazeniumdiolate released upon photolysis of O2-benzyl diazeniumdiolates
Experimental: Analysis of the above described organic products produced following photolysis of the compounds was studied in argon and oxygen-saturated 90%–99% aqueous acetonitrile. Quantification of NO released upon photolysis was performed electrochemically with an inNO Nitric Oxide Measuring System using an amiNO-2000 probe (Innovative Instruments Inc., Tampa, Fla.). The amiNO-2000 probe was calibrated using ascorbic acid/sodium nitrite before and after NO measurements were conducted. In order to differentiate NO production arising from diazeniumdiolate from non-diazeniumdiolate derived NO, the dependence of diazeniumdiolate decomposition rate on pH was utilized. […] Aqueous solutions at pH 11 of the compounds were irradiated and then analyzed for NO. Any NO detected under these conditions must arise from a non-diazeniumdiolate pathway. For all compounds examined the amount of NO formed from such a pathway was negligible. To liberate NO associated with the photoreleased diazeniumdiolate, solutions were acidified with 1.0 M H2SO4 to a pH of between 2–3. In each case, the yield of NO was determined from a series of measurements following photolysis to a range of percent conversions. […] NO yields determined from these experiment along with the observation that compound 1 dissociates to give 1.5 equivalents of NO were used to derive yields of photoreleased diazeniumdiolates from the compounds studied.
Since Path B is favored with the addition of strong π-donating meta substituents, the dihydroxybenzyl derivative of compound 3, n=0, Y=H, R1=R3=R5=H, R2=R4=OH (O^2-3,5-dihydroxybenzyl substituted diazeniumdiolate) was studied in further detail. Consistent with the expected large effect of oxyanionic meta substitution, when compound 3, n=0, Y=H, R1=R3=R5=H, R2=R4=OH is irradiated (Rayonet, 300 nm) in an aqueous solution of pH 11.2 (containing 1% acetonitrile) to 5–35% conversion, the amount of NO detected corresponded to a yield of photoreleased diazeniumdiolate compound 1 of approximately 92%. A comparison of selected results observed with O^2-substituted diazeniumdiolate derivatives having the backbone of compound 3 is shown in FIG. 1. After photolysis of the compound (t=0 sec) there is no nitric oxide production.

[3] = Quantum yields of photolysis of compounds 2 and 3 (actinometry)
[4] = Quantum yields of photolysis of compounds 6 and 9; details: ~20 μM in 90–95% aqueous acetonitrile, below 40% conversion
[5] = Diazeniumdiolate / NO released upon photolysis of compounds 6 and 9 (electrochemical NO probe); details: 0.498 μM, 100% conversion; for % NO: Xenon arc lamp with long-pass 324 nm filter, NO liberated by acidification; for % Diazeniumdiolate: pH 12.2, Xenon arc lamp with long-pass 324 nm filter, derived with 1.5 / 1.8 eq NO
Experimental: This example describes a general procedure for the determination of diazeniumdiolate released upon photolysis of compounds 6 and 9. The amiNO-700 probe was calibrated using ascorbic acid/sodium nitrite before and after NO measurements were recorded. Calibration curves were prepared in order to relate current (detected by the instrument) with concentration of NO. Stock solutions of compounds 6 and 9 were prepared to be 100 μM in acetonitrile, and of these 15 μL aliquots were diluted into to 3 mL of a pH 12.2 aqueous solution. The resulting 0.498 μM solutions were photolyzed with a Xenon arc lamp and a long-pass 324 nm filter for lengths of time appropriate to reach 100% conversion (6–7 minutes for most compounds at this concentration). Under these basic conditions any diazeniumdiolate generated photochemically is stable, and neither sodium-1-(N,N-diethylamino)-1-diazen-1-ium-1,2-diolate (compound 1) or sodium-1-(piperidin-1-yl)-diazen-1-ium-1,2-diolate (compound 20) absorbs at wavelengths above 324 nm. No NO was measured electrochemically at this pH, indicating there are no photochemical paths that lead directly to NO. The NO associated with the photochemically generated diazeniumdiolate was liberated by the addition of 10 μL of 1.0 M sulfuric acid (final solution pH's were typically 2–3. Using the calibration curve and the fact that the amount of NO released upon thermal decomposition of compounds 1 and 20 was calculated to be 1.5 and 1.8 eq. respectively, the absolute percentage of diazeniumdiolate generated upon photolysis of compounds 6 and 9 was determined. FIG. 2 depicts the amount of nitric oxide produced upon photolysis from a selection of 1-methylnaphthyl and 2-methylnaphthyl-O^2-substituted diazeniumdiolates having a backbone of compounds 6 and 9.
Compounds 6 and 9 are soluble in 99% aqueous acetonitrile up to 20 μM and are thermally stable indefinitely at pH 4–11, 25° C. at this concentration. Analysis of the products following photolysis (Rayonet, 300 or 350 nm, Xenon arc lamp with a long-pass 324 nm filter) of compounds 6 and 9 in both argon- and oxygen-saturated 99% aqueous acetonitrile is summarized in Table 2 below. Quantification of NO released upon photolysis was performed electrochemically with an inNO Nitric Oxide Measuring System using an ami-700 probe (Innovative Instruments Inc., Tampa, Fla.).

[6] = Absolute amount of NO released from thermal decomposition of diazeniumdiolates 1 and 20; details: 0.15–0.66 μM in aqueous solution pH 12.2, acidified with 1.0 M sulfuric acid
Experimental: Determination of the absolute amount of NO released from the thermal decomposition of sodium-1-(N,N-diethylamino)-diazen-1-ium-1,2-diolate compound 1, and sodium-1-(piperidin-1-yl)-diazen-1-ium-1,2-diolate compound 20.
Stock solutions of both compounds 1 and 20 were prepared to be 100 μM in aqueous solution at pH=12.2. A series of μL aliquots of the stock solution were diluted into 3 mL of aqueous solution at pH=12.2 resulting in an array of concentrations from 0.15–0.66 μM. The probe was allowed to equilibrate in the sample solutions before the addition of 10 μL of 1.0 M sulfuric acid. The final concentration of NO in solution after complete decomposition was determined by the calibration curve, and a linear plot of NO released vs. initial concentration was obtained. By this method it was determined that compounds 1 and 20 release 1.5 and 1.8 eq. of NO respectively.

[7] = Lifespan of diazeniumdiolate 1 as a function of pH; details: room temperature
[8] = H2O/CH3CN 99/1, photolysis 300 nm, based on percent reactant converted, NO measured and 1.5 eq NO per diazeniumdiolate 1, estimated error ±5%
[9] = solvent H2O/CH3CN 0/100, photolysis 254 nm
[10] = solvent H2O/CH3CN 0/100, photolysis 300 nm
[11] = solvent H2O/CH3CN 99/1, photolysis 254 nm
[12] = solvent H2O/CH3CN 99/1, photolysis 300 nm

COc1cc2ccccc2cc1/C=C/CON=[N+]([O-])N1CCCCC1
rate of photochemical release of NO versus thermal decomposition of 1 and 20 [1]: consistent with the known thermal decays

CCN(CC)[N+]([O-])=NOCc1cccc(OC)c1 [3 (R2 = MeO, R4 = H), O^2-(3-methoxybenzyl)-1-(N,N-diethylamino)-diazen-1-ium-1,2-diolate]
% Diazeniumdiolate [2, 8]: 6%

CCN(CC)[N+]([O-])=NOCc1cccc(N(C)C)c1 [3 (R2 = NMe2, R4 = H), O^2-(3-dimethylaminobenzyl)-1-(N,N-diethylamino)-diazen-1-ium-1,2-diolate]
Quantum Yield [3, 9]: 0.60 | Quantum Yield [3, 10]: 0.17 | Quantum Yield [3, 11]: 0.25 | Quantum Yield [3, 12]: 0.04 | % Diazeniumdiolate [2, 8]: 35%

CCN(CC)[N+]([O-])=NOCc1cc(OC)cc(OC)c1 [3 (R2 = R4 = MeO), O^2-(3,5-dimethoxybenzyl)-1-(N,N-diethylamino)-diazen-1-ium-1,2-diolate]
Quantum Yield [3, 9]: 0.35 | Quantum Yield [3, 11]: 0.17 | % Diazeniumdiolate [2, 8]: 10%

CCN(CC)[N+]([O-])=NOCc1cc(N(C)C)cc(N(C)C)c1 [3 (R2 = R4 = NMe2), O^2-(3,5-bis-dimethylaminobenzyl)-1-(N,N-diethylamino)-diazen-1-ium-1,2-diolate]
Quantum Yield [3, 9]: 0.53 | Quantum Yield [3, 10]: 0.18 | Quantum Yield [3, 11]: 0.26 | Quantum Yield [3, 12]: 0.05 | % Diazeniumdiolate [2, 8]: 47%

CCN(CC)[N+]([O-])=NOCc1cc(O)cc(O)c1 [3 (R2 = R4 = OH), O^2-(3,5-dihydroxybenzyl)-1-(N,N-diethylamino)-diazen-1-ium-1,2-diolate]
Quantum Yield [3, 12]: 0.87 | % Diazeniumdiolate ([2]; H2O/CH3CN 99/1, photolysis 300 nm at pH 11.2, 5–35% conversion): 92^d %

CCN(CC)[N+]([O-])=NOCc1cccc2ccccc12 [6 (n = 0, Y = R1–R7 = H), O^2-(1-naphthylmethyl)-1-(N,N-diethylamino)-1-diazen-1-ium-1,2-diolate]
Quantum Yield ([4]; 300 nm (rayonet reactor)): 0.01^a | % NO [5]: 1.5% | % Diazeniumdiolate [5]: 1%

CCN(CC)[N+]([O-])=NOC/C=C/c1cccc2ccccc12 [6 (n = 1, Y = R1–R7 = H)]
Quantum Yield ([4]; 300 nm (rayonet reactor)): 0.12^a | % NO [5]: 37.5% | % Diazeniumdiolate [5]: 25%

CCN(CC)[N+]([O-])=NOCc1cc2ccccc2cc1OC [9 (n = 0, Y = R1, R3–R7 = H, R2 = OMe), O^2-(3-methoxy-2-naphthylmethyl)-1-(N,N-diethylamino)-diazen-1-ium-1,2-diolate]
Quantum Yield ([4]; 300 nm (rayonet reactor)): 0.02^a | % NO [5]: 30% | % Diazeniumdiolate [5]: 20% | % Diazeniumdiolate ([5]; listed as 9 (where n=0, Y=R1, R3–R7=H, R2=OMe, X=diethylamino)): 50%

CCN(CC)/[N+]([O-])=N/[O-].[Na+] [Compound 1, sodium-1-(N,N-diethylamino)-diazen-1-ium-1,2-diolate]
NO released upon thermal decomposition [6]: 1.5 eq. | lifespan ([7]; pH 3): several seconds | lifespan ([7]; pH 11): several hours | rate of release of nitric oxide from photochemically generated diazeniumdiolate ([1]; FIG. 5, varied pH): pH dependent

[Na+].[O-]/N=[N+](\[O-])N1CCCCC1 [Compound 20, sodium-1-(piperidin-1-yl)-diazen-1-ium-1,2-diolate]
NO released upon thermal decomposition [6]: 1.8 eq.

CCN(CC)[N+]([O-])=NOC/C=C/c1cc2ccccc2cc1OC [O^2-(3-(3-methoxy-2-naphthyl)-E-2-propenyl)-1-(N,N-diethylamino)-diazen-1-ium-1,2-diolate]
% Diazeniumdiolate [5]: 50% | rate of photochemical release of NO versus thermal decomposition of 1 and 20 [1]: consistent with the known thermal decays

CCN(CC)[N+]([O-])=NOC/C=C/c1cccc2c(OC)ccc(OC)c12 [O^2-(3-(5,8-dimethoxy-1-naphthyl)-E-2-propenyl)-1-(N,N-diethylamino)-diazenen-1-ium-1,2-diolate]
Quantum Yield ([4]; 355 nm (ND:YAG laser)): 0.66^b | % NO [5]: 143% | % Diazeniumdiolate [5]: 95%

CCN(CC)[N+]([O-])=NOCc1cccc2c(OC)ccc(OC)c12 [O^2-(5,8-dimethoxy-1-naphthylmethyl)-1-(N,N-diethylamino)-diazen-1-ium-1,2-diolate]
Quantum Yield ([4]; 355 nm (ND:YAG laser)): 0.12^b | % NO [5]: 60% | % Diazeniumdiolate [5]: 40%

CCN(CC)[N+]([O-])=NOCc1ccc2c(OC)ccc(OC)c2c1 [O^2-(5,8-dimethoxy-2-naphthylmethyl)-1-(N,N-diethylamino)-diazen-1-ium-1,2-diolate]
Quantum Yield ([4]; 355 nm (ND:YAG laser)): 0.05^b | % NO [5]: 51% | % Diazeniumdiolate [5]: 34%
